Article PMC7060200, “Selective Binding of HSC70 and its Co-Chaperones to Structural Hotspots on CFTR” (Scientific Reports, 2020)
“Also recorded” adds a separate entry of the source. Ends that are not written are not given here. Peptide text beside a SMILES is read from it.

How the values were obtained:
HSC70 [1] = molecular target: T1, HSC70 (Homo sapiens, UniProt P11142); test: ELISA binding of HSC70 to immobilized CFTR NBD1 and competition by soluble peptides; conditions: 1 μM HSC70, with ATP, soluble peptide, Fig. 4a; n = 5
T1 construct: made in house
Description: (§1) HSC70, DJA1 and DJA2 were purified as His-tagged proteins, as described. HSC70 was also amplified by PCR with an N-terminal FLAG tag, inserted into pPROEXHTa (Invitrogen) and purified as described. HSC70 was stored in 100 mM KOAc, 20 mM HEPES-KOH pH 7.5, 5 mM MgOAC2 (buffer G), DJA1 and DJA2 in 500 mM NaCl, 20 mM HEPES-KOH pH 7.5, 5 mM MgOAC2 (buffer H). Avi-tagged CFTR NBD1 was purified as described.
For NBD1 binding, 100 nM of strep-tagged NBD1 in 100 µl of 150 mM NaCl, 50 mM Na2HPO4 pH 7.5, 1 mM ATP, and 40 µM DTT (buffer N), was bound to streptavidin plates for 1 hour at 4 °C with agitation. Plates were washed with PBST and incubated in buffer N at 30 °C in a water bath for 5 min. Then, plates were blocked in PBST containing 0.5% BSA, followed by the addition of HSC70 binding reactions, and detection as above.

DJA1 [2] = molecular target: T2, DJA1 (Homo sapiens, UniProt P31689); test: Competition ELISA: soluble peptide vs DJA1 binding to immobilized 1097-L; conditions: for DJA1 binding site by competition screen (in words): 1 μM DJA1, 100 μM soluble peptide, Fig. 3c/5, cutoff twice SD of 733-L, n ≥ 4; for competition of DJA1 binding to immobilized 1097-L (in words): 1 μM DJA1, soluble peptide up to 100 μM
T2 construct: made in house
Description: as §1
(§2) The CFTR peptide library was designed as 15-mers with 10-residue overlaps covering the cytosolic sequences as in Fig. 1a and Supplemental Table S1. Synthetic peptides (Mimotopes, PepSet purity) contained an N-terminal biotin followed by linker sequence GSGS and the 15-mer sequence. […] Peptides were reconstituted in DMSO or water.
(§3) For peptide binding, streptavidin-coated black 96-well plates (Nunc Maxisorp, ThermoFisher) were pre-rinsed with PBS containing 0.05% Tween-20 (PBST), and 5 µM biotinylated peptides in 100 µl PBS were bound overnnight at 4 °C with agitation. Plates were washed with PBST and blocked with PBST containing 0.5% bovine serum albumin (BSA) for 1 h. After removal of blocking solution, 100 µl reactions containing chaperones at indicated concentrations were bound for 45 min at room temperature with agitation. HSC70 reactions were in buffer G containing 1 mM ATP, DJA1 and DJA2 reactions were in buffer H. For competition assays, chaperones and peptides were mixed at indicated concentrations immediately before the reactions were added to the plates. For detections, the plates were washed in PBST and 5 μM His-Probe-HRP conjugate (ThermoFisher) in 100 μL PBST added for 15 min with agitation. After washing in PBST, plates were developed using Amplex Red (ThermoFisher) according to manufacturer’s instructions, in a fluorescence plate reader (Tecan M1000).
(§4) Affinities were determined separately from binding curves and from competition curves. Data from binding of chaperones to immobilized peptides (Fig. 2a,b and Supplemental Fig. S2a–c) were fit to the equation 1/(1 − i) = (C/i)/Kd^B − b, where i is the relative saturation, C is the chaperone concentration (1 μM), Kd^B is the apparent dissociation constant from the binding data. In the plot of 1/(1 − i) against (C/i), the slope is 1/Kd^B, and −b is the intercept. […] In the plot of bi + (C/Kd^B)/i over D, the slope is 1/Kd^C, and e is the intercept. The amount of chaperone bound in the absence of competitor was set as i = 1.
(§5) Established statistical methods[71]–[73] were used to analyze the data for chaperone binding to the peptide library. First, biological and statistical outliers were identified with the Tukey method in two rounds, for biological and then statistical outliers. […] Binding data were represented as multiples of the standard deviations from the normal means. Binding in the presence of competitor peptides were shown as a fraction of binding in the absence of competitor, or the fraction competed calculated as 1 – fraction bound. Values were compared using a two-tailed unpaired Student’s t-test assuming unequal variance.

HSC70 and DJA2 = test: Refolding of guanidine denatured luciferase by HSC70 and DJA2; type: biochemical; conditions: 4 μM each HSC70 and DJA2, 100 nM luciferase, 100 μM peptide (25-fold excess), 60 min, % of control without peptide; n = 3
Description: Refolding of guanidine denatured luciferase with HSC70 and DJA2 was as described. […] To monitor refolding, luciferase activity was measured in a luminometer (Berthold Sirius) with the luciferase assay kit (Promega). For co-IPs, 20 μL reaction aliquots were stopped by dilution at 4 °C to 500 μL with buffer containing 0.1% Triton X-100, 0.2% BSA and 0.04 mg/mL apyrase (Sigma). Reactions were incubated with FLAG-M2 magnetic beads (Sigma) for 1 h at 4 °C with agitation, then beads were isolated and washed with buffer G containing 0.1% Triton X-100, and eluted with 40 μL of 1 μg/mL FLAG peptide in the same buffer. Samples were analyzed on Western blots detected with antibodies against luciferase (Sigma, L2164) and the FLAG-M2 tag (Sigma, F1804).

DJA2 [3] = molecular target: T3, DJA2 (Homo sapiens, UniProt O60884); test: Competition ELISA: soluble peptide vs DJA2 binding to immobilized 1097-L; conditions: for DJA2 binding site by competition screen (in words): 1 μM DJA2, 100 μM soluble peptide, Fig. 3c/5, cutoff twice SD of 733-L, n ≥ 4; for competition of DJA2 binding to immobilized 1097-L (in words): 1 μM DJA2, soluble peptide up to 100 μM
T3 construct: made in house
Description: as §1, §2, §3, §4, §5

HSC70 [4] = molecular target: T1, HSC70; test: Competition ELISA: soluble peptide vs HSC70 binding to immobilized 1097-L; conditions: for HSC70 binding site by competition screen (in words): 1 μM HSC70, 100 μM soluble peptide, Fig. 3c/5, cutoff twice SD of 733-L, n ≥ 4; for competition of HSC70 binding to immobilized 1097-L (in words): 1 μM HSC70, soluble peptide up to 100 μM; for Kd: read-out: Kd from competition curves, HSC70
Description: as §1, §2, §3, §4, §5

HSC70 [5] = molecular target: T1, HSC70; test: ELISA binding of HSC70 to immobilized biotinylated CFTR peptides
Description: as §1, §2, §3, §4, §5

DJA1 [6] = molecular target: T2, DJA1; test: ELISA binding of DJA1 to immobilized biotinylated CFTR peptides
Description: as §1, §2, §3, §4, §5

DJA2 [7] = molecular target: T3, DJA2; test: ELISA binding of DJA2 to immobilized biotinylated CFTR peptides
Description: as §1, §2, §3, §4, §5

T1 sequence (P11142 whole entry): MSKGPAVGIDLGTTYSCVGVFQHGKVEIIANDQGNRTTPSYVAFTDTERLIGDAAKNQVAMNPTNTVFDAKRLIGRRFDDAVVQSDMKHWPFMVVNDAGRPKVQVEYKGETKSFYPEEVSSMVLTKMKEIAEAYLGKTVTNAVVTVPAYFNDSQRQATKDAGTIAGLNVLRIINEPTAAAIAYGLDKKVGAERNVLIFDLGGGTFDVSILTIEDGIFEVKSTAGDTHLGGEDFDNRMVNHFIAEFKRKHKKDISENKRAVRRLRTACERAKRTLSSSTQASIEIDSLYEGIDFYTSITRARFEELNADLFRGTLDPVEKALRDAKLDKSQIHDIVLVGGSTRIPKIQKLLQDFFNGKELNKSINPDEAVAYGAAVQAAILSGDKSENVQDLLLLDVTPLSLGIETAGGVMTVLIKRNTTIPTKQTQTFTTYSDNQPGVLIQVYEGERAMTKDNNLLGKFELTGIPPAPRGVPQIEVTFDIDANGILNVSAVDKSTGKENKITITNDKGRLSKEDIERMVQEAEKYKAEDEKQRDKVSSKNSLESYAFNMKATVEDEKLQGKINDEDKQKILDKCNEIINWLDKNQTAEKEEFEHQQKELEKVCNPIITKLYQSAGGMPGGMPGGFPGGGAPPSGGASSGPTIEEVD
T2 sequence (P31689 whole entry): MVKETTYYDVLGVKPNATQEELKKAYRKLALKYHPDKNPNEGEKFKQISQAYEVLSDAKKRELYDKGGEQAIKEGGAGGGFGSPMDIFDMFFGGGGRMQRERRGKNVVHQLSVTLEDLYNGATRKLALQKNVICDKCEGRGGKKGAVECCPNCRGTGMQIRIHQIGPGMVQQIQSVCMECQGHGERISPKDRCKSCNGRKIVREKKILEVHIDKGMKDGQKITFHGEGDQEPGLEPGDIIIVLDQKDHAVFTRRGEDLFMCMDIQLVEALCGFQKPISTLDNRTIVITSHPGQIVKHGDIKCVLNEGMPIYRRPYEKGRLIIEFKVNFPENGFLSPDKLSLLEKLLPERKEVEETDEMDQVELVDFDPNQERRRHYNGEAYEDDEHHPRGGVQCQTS
T3 sequence (O60884 whole entry): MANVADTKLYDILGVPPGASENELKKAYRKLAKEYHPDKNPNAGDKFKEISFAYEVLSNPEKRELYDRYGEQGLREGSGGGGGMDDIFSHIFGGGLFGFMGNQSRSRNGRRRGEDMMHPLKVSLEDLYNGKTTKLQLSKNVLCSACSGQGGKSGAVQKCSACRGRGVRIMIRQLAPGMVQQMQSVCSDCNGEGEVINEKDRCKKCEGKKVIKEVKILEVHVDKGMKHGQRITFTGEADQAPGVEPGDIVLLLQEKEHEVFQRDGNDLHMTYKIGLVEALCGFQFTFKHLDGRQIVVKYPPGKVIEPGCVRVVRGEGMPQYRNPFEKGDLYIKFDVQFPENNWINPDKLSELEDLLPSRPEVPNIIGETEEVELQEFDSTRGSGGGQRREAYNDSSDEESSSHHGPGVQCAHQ

Molecule: DKILILHEG [Peptide 618-S]
- competition of HSC70 binding to immobilized NBD1 (in words) (HSC70 [1]): competed the majority of HSC70
- DJA1 binding site by competition screen (in words) (DJA1 [2]): bound by HSC70, DJA2 and DJA1
- effect on luciferase refolding (in words) (HSC70 and DJA2): partial but still significant
- DJA2 binding site by competition screen (in words) (DJA2 [3]): bound by HSC70, DJA2 and DJA1
- HSC70 binding site by competition screen (in words) (HSC70 [4]): bound by HSC70, DJA2 and DJA1
- competition of HSC70 binding to immobilized 1097-L (in words) (HSC70 [4]): competed HSC70 well

Molecule: TSLLMVIMG [Peptide 469-S]
- competition of HSC70 binding to immobilized NBD1 (in words) (HSC70 [1]): competed the majority of HSC70
- effect on luciferase refolding (in words) (HSC70 and DJA2): inhibited refolding
- DJA2 binding site by competition screen (in words) (DJA2 [3]): HSC70-DJA2 sites
- competition of DJA2 binding to immobilized 1097-L (in words) (DJA2 [3]): competed
- HSC70 binding site by competition screen (in words) (HSC70 [4]): HSC70-DJA2 sites
- competition of HSC70 binding to immobilized 1097-L (in words) (HSC70 [4]): competed HSC70 well

Molecule: QKVFIFSGTF [Peptide 1295-S]
- competition of HSC70 binding to immobilized NBD1 (in words) (HSC70 [1]): effective competitors
- effect on luciferase refolding (in words) (HSC70 and DJA2): partial but still significant
- DJA2 binding site by competition screen (in words) (DJA2 [3]): HSC70-DJA2 sites
- HSC70 binding site by competition screen (in words) (HSC70 [4]): HSC70-DJA2 sites
- competition of HSC70 binding to immobilized 1097-L (in words) (HSC70 [4]): competed
- Kd (HSC70 [4]): 1260 nM

Molecule: FLYLSTLRWFQMRIE [Peptide 1097-L]
- HSC70 binding in ATP compared with ADP or no nucleotide (HSC70 [5]; 1 μM HSC70, immobilized 1097-L, Fig. S1a, n ≥ 4): somewhat lower than in ADP or the absence of nucleotide
- binding in peptide library screen, HSC70 (in words) (HSC70 [5]; 2 μM HSC70, with ATP, immobilized 15-mer, n ≥ 3): most consistently bound by all three chaperones
- titration binding / saturation, HSC70 (in words) (HSC70 [5]; HSC70 titrated to 1.5 μM on immobilized peptide, Fig. 2a, S2a, n ≥ 6): higher than to the other peptides
- Kd (HSC70 [5]; immobilized peptide (biotin-GSGS-15-mer), HSC70 titrated in buffer G pH 7.5 + 1 mM ATP, 45 min, room temperature, n ≥ 6, read-out: Kd from binding curves, HSC70): 58 nM
- HSC70 concentration at which binding reached saturation (HSC70 [5]; titration on immobilized peptide, Fig. 2a, n ≥ 6): around 1 μM
- competition of DJA1 binding to immobilized 1097-L (in words) (DJA1 [2]): similarly competed
- Kd (DJA1 [2]; read-out: Kd from competition curves, DJA1): 2430 nM
- effect on luciferase refolding (in words) (HSC70 and DJA2): blocked refolding entirely
- binding in peptide library screen, DJA1 (in words) (DJA1 [6]; 2 μM DJA1, absence of ATP, immobilized 15-mer, n ≥ 3): most consistently bound by all three chaperones
- titration binding / saturation, DJA1 (in words) (DJA1 [6]; DJA1 titrated to 1.5 μM on immobilized peptide, Fig. 2b, S2b, n = 3): at or close to saturation above 1 μM; also recorded: higher than to the other peptides
- Kd (DJA1 [6]; immobilized peptide (biotin-GSGS-15-mer), DJA1 titrated in buffer H pH 7.5, no nucleotide, 45 min, room temperature, n = 3, read-out: Kd from binding curves, DJA1): 167 nM
- competition of DJA2 binding to immobilized 1097-L (in words) (DJA2 [3]): similarly competed
- Kd (DJA2 [3]; read-out: Kd from competition curves, DJA2): 585 nM
- binding in peptide library screen, DJA2 (in words) (DJA2 [7]; 2 μM DJA2, absence of ATP, immobilized 15-mer, n ≥ 3): most consistently bound by all three chaperones
- titration binding / saturation, DJA2 (in words) (DJA2 [7]; DJA2 titrated to 1.5 μM on immobilized peptide, Fig. 2b, S2c, n = 3): at or close to saturation above 1 μM; also recorded: higher than to the other peptides
- Kd (DJA2 [7]; immobilized peptide (biotin-GSGS-15-mer), DJA2 titrated in buffer H pH 7.5, no nucleotide, 45 min, room temperature, n = 3, read-out: Kd from binding curves, DJA2): 75 nM
- competition of HSC70 binding to immobilized 1097-L (in words) (HSC70 [4]): Strong, essentially saturating competition
- Kd (HSC70 [4]): 602 nM

Molecule: CC[C@H](C)[C@H](NC(=O)[C@@H](NC(=O)[C@@H](NC(=O)[C@H](CS)NC(=O)[C@@H](N)CC(=O)O)[C@@H](C)O)C(C)C)C(=O)N[C@@H](CC(C)C)C(=O)N[C@@H](CS)C(=O)N[C@@H](CCC(=O)O)C(=O)N[C@@H](Cc1c[nH]cn1)C(=O)O [Peptide 1398-S] (H-DCTVILCEH-OH; N-terminus and C-terminus assumed)
- competition of HSC70 binding to immobilized NBD1 (in words) (HSC70 [1]): effective competitors
- DJA1 binding site by competition screen (in words) (DJA1 [2]): bound by HSC70, DJA2 and DJA1
- competition of DJA1 binding to immobilized 1097-L (in words) (DJA1 [2]): competed
- effect on luciferase refolding (in words) (HSC70 and DJA2): inhibited refolding
- DJA2 binding site by competition screen (in words) (DJA2 [3]): bound by HSC70, DJA2 and DJA1
- competition of DJA2 binding to immobilized 1097-L (in words) (DJA2 [3]): competed
- HSC70 binding site by competition screen (in words) (HSC70 [4]): bound by HSC70, DJA2 and DJA1
- competition of HSC70 binding to immobilized 1097-L (in words) (HSC70 [4]): competed
